This is an account of results in the supplement of paper PMC10307832.

Experiment in all cases: relative viability (nuclei count vs DMSO), 5 days (fraction); higher = more cells survive
Compound in the assay “R406 + Olaparib”: COc1cc(Nc2ncc(F)c(Nc3ccc4c(n3)NC(=O)C(C)(C)O4)n2)cc(OC)c1OC [R406] + O=C(c1cc(Cc2n[nH]c(=O)c3ccccc23)ccc1F)N1CCN(C(=O)C2CC2)CC1 [Olaparib] (partner 8 µM)
An outline of the steps:
(§1)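 Lung cancer cell lines were pin-tool dosed in 1536-well plates on the day after seeding, with either a lone drug or a fixed anchor-drug dose plus five library-drug doses (not always all listed) in √10 steps. Nuclei were counted on 4× images after 5 days. Relative viability is the ratio of treated-well to vehicle-well nuclei counts, with each value a median of duplicate plates.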

Compound in the assay “Daporinad + Trametinib”: O=C(/C=C/c1cccnc1)NCCCCC1CCN(C(=O)c2ccccc2)CC1 [Daporinad] + CC(=O)Nc1cccc(-n2c(=O)n(C3CC3)c(=O)c3c(Nc4ccc(I)cc4F)n(C)c(=O)c(C)c32)c1 [Trametinib] (partner 0.02 µM)
An outline of the steps:
as §1

Compound in the assay “Daporinad + OSI-027”: O=C(/C=C/c1cccnc1)NCCCCC1CCN(C(=O)c2ccccc2)CC1 [Daporinad] + COc1cccc2cc(-c3nc([C@H]4CC[C@H](C(=O)O)CC4)n4ncnc(N)c34)[nH]c12 [OSI-027] (partner 0.5 µM)
In short, it runs like this:
as §1

Compound in the assay “Daporinad + Crizotinib”: O=C(/C=C/c1cccnc1)NCCCCC1CCN(C(=O)c2ccccc2)CC1 [Daporinad] + C[C@@H](Oc1cc(-c2cnn(C3CCNCC3)c2)cnc1N)c1c(Cl)ccc(F)c1Cl [Crizotinib] (partner 1 µM)
An outline of the steps: as §1

With PC-14, the relative viability with R406 + Olaparib (first compound 0.08 µM) is 0.271; with R406 + Olaparib (first compound 0.253 µM), 0.257; in the assay with R406 + Olaparib (first compound 0.8 µM) it was 0.225; in the assay with R406 + Olaparib (first compound 2.53 µM), 0.291; in the assay with R406 + Olaparib (first compound 8 µM) it was 0.0748; with Daporinad + Trametinib (first compound 0.0005 µM), 0.657. Further, the relative viability with Daporinad + Trametinib (first compound 0.001581 µM) is 0.654; in the assay with Daporinad + Trametinib (first compound 0.005 µM) it was 0.722; in the assay with Daporinad + Trametinib (first compound 0.01581 µM) it was 0.572; in the assay with Daporinad + OSI-027 (first compound 0.0005 µM) it was 0.708; with Daporinad + OSI-027 (first compound 0.001581 µM) it was 1.04; with Daporinad + OSI-027 (first compound 0.005 µM), 0.917. Moreover, the relative viability with Daporinad + OSI-027 (first compound 0.01581 µM) is 0.604; in the assay with Daporinad + Crizotinib (first compound 0.0005 µM), 0.911; with Daporinad + Crizotinib (first compound 0.001581 µM), 0.876; with Daporinad + Crizotinib (first compound 0.005 µM), 0.913; with Daporinad + Crizotinib (first compound 0.01581 µM), 0.651.

With RERF-LC-KJ, the relative viability with R406 + Olaparib (first compound 0.08 µM) is 1.05; with R406 + Olaparib (first compound 0.253 µM) it was 0.947; with R406 + Olaparib (first compound 0.8 µM), 0.908; in the assay with R406 + Olaparib (first compound 2.53 µM), 0.756; with R406 + Olaparib (first compound 8 µM), 0.585; with Daporinad + Trametinib (first compound 0.0005 µM), 0.788. Also, the relative viability with Daporinad + Trametinib (first compound 0.001581 µM) amounted to 1.01; with Daporinad + Trametinib (first compound 0.005 µM), 0.955; in the assay with Daporinad + Trametinib (first compound 0.01581 µM) it was 0.921; with Daporinad + OSI-027 (first compound 0.0005 µM) it was 0.541; with Daporinad + OSI-027 (first compound 0.001581 µM), 0.63; in the assay with Daporinad + OSI-027 (first compound 0.005 µM), 0.648. Also, the relative viability turned out to be 0.612 with Daporinad + OSI-027 (first compound 0.01581 µM); 0.787 with Daporinad + Crizotinib (first compound 0.0005 µM); 0.861 with Daporinad + Crizotinib (first compound 0.001581 µM); 1.06 with Daporinad + Crizotinib (first compound 0.005 µM); 0.803 in the assay with Daporinad + Crizotinib (first compound 0.01581 µM).

Turning to SK-LU-1, the relative viability in the assay with R406 + Olaparib (first compound 0.08 µM) stood at 0.441; in the assay with R406 + Olaparib (first compound 0.253 µM) it was 0.44; in the assay with R406 + Olaparib (first compound 0.8 µM), 0.464; with R406 + Olaparib (first compound 2.53 µM) it was 0.249; in the assay with R406 + Olaparib (first compound 8 µM), 0.213; in the assay with Daporinad + Trametinib (first compound 0.0005 µM) it was 0.48. Also, the relative viability with Daporinad + Trametinib (first compound 0.001581 µM) worked out at 0.522; with Daporinad + Trametinib (first compound 0.005 µM), 0.55; with Daporinad + Trametinib (first compound 0.01581 µM), 0.615; in the assay with Daporinad + OSI-027 (first compound 0.0005 µM), 0.358; with Daporinad + OSI-027 (first compound 0.001581 µM), 0.335; with Daporinad + OSI-027 (first compound 0.005 µM) it was 0.454. Also, the relative viability with Daporinad + OSI-027 (first compound 0.01581 µM) was 0.348; with Daporinad + Crizotinib (first compound 0.0005 µM), 0.942; with Daporinad + Crizotinib (first compound 0.001581 µM), 0.958; in the assay with Daporinad + Crizotinib (first compound 0.005 µM), 1.18; with Daporinad + Crizotinib (first compound 0.01581 µM) it was 0.892.

Consider SK-MES-1, for which the relative viability in the assay with R406 + Olaparib (first compound 0.08 µM) amounted to 0.613; with R406 + Olaparib (first compound 0.253 µM) it was 0.677; with R406 + Olaparib (first compound 0.8 µM) it was 0.715; with R406 + Olaparib (first compound 2.53 µM) it was 0.327; with R406 + Olaparib (first compound 8 µM) it was 0.174; in the assay with Daporinad + Trametinib (first compound 0.0005 µM), 0.561. The relative viability turned out to be 0.524 with Daporinad + Trametinib (first compound 0.001581 µM); 0.613 with Daporinad + Trametinib (first compound 0.005 µM); 0.743 with Daporinad + Trametinib (first compound 0.01581 µM); 0.532 in the assay with Daporinad + OSI-027 (first compound 0.0005 µM); 0.608 with Daporinad + OSI-027 (first compound 0.001581 µM); 0.734 with Daporinad + OSI-027 (first compound 0.005 µM). Further, the relative viability with Daporinad + OSI-027 (first compound 0.01581 µM) is 0.601; with Daporinad + Crizotinib (first compound 0.0005 µM), 0.959; in the assay with Daporinad + Crizotinib (first compound 0.001581 µM) it was 1.01; with Daporinad + Crizotinib (first compound 0.005 µM), 1.12; with Daporinad + Crizotinib (first compound 0.01581 µM) it was 0.9.

On to SW 1573, for which the relative viability with R406 + Olaparib (first compound 0.08 µM) amounted to 0.492; in the assay with R406 + Olaparib (first compound 0.253 µM), 0.57; in the assay with R406 + Olaparib (first compound 0.8 µM) it was 0.607; with R406 + Olaparib (first compound 2.53 µM), 0.399; in the assay with R406 + Olaparib (first compound 8 µM) it was 0.158; in the assay with Daporinad + Trametinib (first compound 0.0005 µM), 0.499. For the same cell line, the relative viability came out at 0.45 in the assay with Daporinad + Trametinib (first compound 0.001581 µM); 0.447 in the assay with Daporinad + Trametinib (first compound 0.005 µM); 0.28 with Daporinad + Trametinib (first compound 0.01581 µM); 0.564 with Daporinad + OSI-027 (first compound 0.0005 µM); 0.705 in the assay with Daporinad + OSI-027 (first compound 0.001581 µM); 0.581 with Daporinad + OSI-027 (first compound 0.005 µM). The relative viability in the assay with Daporinad + OSI-027 (first compound 0.01581 µM) came out at 0.455; in the assay with Daporinad + Crizotinib (first compound 0.0005 µM), 0.834; with Daporinad + Crizotinib (first compound 0.001581 µM) it was 0.831; with Daporinad + Crizotinib (first compound 0.005 µM), 0.728; with Daporinad + Crizotinib (first compound 0.01581 µM), 0.479.
